Data taken from patent US4769389A, “Oxygenated-alkyl derivatives of glutamic and aspartic acids with antagonistic activity to bio-active polypeptides and a method for their preparation” (priority 1985, dated 1988).
Converted amounts (≈) assume the structure as drawn. Where two headings read alike, the source gives them in different places.

Assays:
guinea-pig gallbladder = assay: Anti-CCK activity on guinea-pig gallbladders in vitro (contraction by CCK-8); settings: for IC50: Cavia porcellus, CCK-8 10 ng/ml, in vitro
Experimental: ANTI-CCK ACTIVITY ON GUINEA-PIG GALLBLADDERS IN VITRO A longitudinal strip of guinea-pig gallbladder is placed in a bath for isolated organs in Krebs at a temperature of 32° C. and oxygenated continuously with an oxygen-CO2 mixture (95-[…]). The isometric contractions were detected by means of a force transducer and recorded. […] The results obtained are shown in Table 3 which gives the compounds tested and the IC50 values found which were calculated by the method of regression in a test of at least three experiments for each compound studied.

guinea pig gall bladders = assay: Anti-CCK-8 activity on guinea-pig gallbladders in situ (in vivo); settings: Cavia porcellus, iv; CCK-8 10 ng/kg i.v.; compound i.v.; read-out: ID50, anti-CCK-8 activity in situ
Experimental: In order to confirm the evidence of the studies in vitro, several of the more interesting compounds were tested in vivo with the use of guinea-pig gallbladders in situ.
The method used was that described by Ljungberg (Svensk. Farm. Tidskr. 69, 351-354, 1964).
Guinea-pigs having a weight of about 400 g anaesthetised with urethane were used; the substances being tested were administered intravenously (i.v.) into the jugular vein.
The responses of the gallbladder to the substances being tested were detected by means of a force transducer and recorded by means of a microdynamometer. 10 ng/kg of CCK 8 were chosen as the optimum contracting dose. The antagonistic compounds tested were administered in increasing doses so as to enable the calculation of an ID50 value, that is the dose (in mg/kg i.v.) having a 50% inhibiting effect against contractions induced by 10 ng/kg i.v. of CCK-8.

digestive tract = assay: Antispastic activity, vegetable carbon test (speed of transit through stomach and intestine) in mice; type: in vivo; settings: Mus musculus, ip, read-out: A[…] ED50 (dose which reduces the intestinal transit time of the carbon by 50%), intraperitoneally
Description: The anti-spastic activity which the present compounds exert on the whole of the digestive tract is also considerable. Measured in mice with the vegetable carbon test (speed of transit through the stomach and intestine) this activity is illustrated in the following table: […]

colon of rabbits = assay: Antispastic activity in the colon of rabbits stimulated with CCK-8; type: in vivo, rabbit; parameters: Antispastic activity in colon, EXPERIMENT 1 / Antispastic activity in colon, EXPERIMENT 2: unit not given here; settings: CCK 100 ng/kg
Experimental: The abdomen of anaesthetised rabbit is cut open to display the tranverse colon. A small balloon full of water is inserted at an established point and connected to a pressure transducer by means of a polyethylene cannula filled with H2 O.
The optimum sensitivity being fixed in relation to the physiological contractions, the products were administered through the femeral vein. Contractions were induced by the administration of 100 ng/kg of CCK.

[1] = tested on: pancreatitis in mice induced experimentally by cerulein; assay: Pancreatitis induced by cerulein in mice; type: in vivo; settings: for ED50: Mus musculus, ip, cerulein, mice
Experimental: Adult male mice received six injections of cerulein (Takus) (50 mcg/kg) each hour for six hours.
The compound was administered 30 minutes before each administration of cerulein. Nine hours after the beginning of the treatment, the blood was taken from the rectro-orbitory plexus after anaesthesia with ether, the animals were killed and the pancreas removed and weighed.

[2] = tested on: pancreatitis in rats induced experimentally by taurocholate; assay: Pancreatitis induced by sodium taurocolate in rats; type: in vivo; settings: for ED50: Rattus norvegicus, ip, taurocholate, rats
Experimental: The products under examination were administered intraperitoneally (i.p.) 30 minutes before the operation and 3 hours after the operation. Six hours after the laparatomy the blood was removed from the retro-orbitory plexus after anaesthesia with ether, the animals were killed and the pancreas was removed and weighed. The activity of the serum amylase was determined by the method described above.

in vivo = settings: mouse, iv

## CCCCCN(CCOCC)C(=O)C(CCC(=O)O)NC(=O)c1ccc(Cl)c(Cl)c1 (centres unmarked) [Compound 2]
guinea-pig gallbladder
  IC50: 0.1 µg/mL (≈ 0.217 µM)
guinea-pig gallbladder; vs CCK-8 10 ng/ml
  50% antagonising concentration relative to that of the specific agonist: about 10 times
Guinea pig gall bladders
  ED50: 0.1 mg/kg
Digestive tract
  ED50: 14 mg/kg
Colon of rabbits; 0.3 mg/kg i.v.
  Antispastic activity in colon, EXPERIMENT 1: -9.8
  Antispastic activity in colon, EXPERIMENT 2: -27.2
Colon of rabbits; 1 mg/kg i.v.
  Antispastic activity in colon, EXPERIMENT 1: -45.1
  Antispastic activity in colon, EXPERIMENT 2: -39.8
Colon of rabbits; 3 mg/kg i.v.
  Antispastic activity in colon, EXPERIMENT 1: -88.0
  Antispastic activity in colon, EXPERIMENT 2: -92.4
Colon of rabbits; Oryctolagus cuniculus, iv
  ED50: 1.47 mg/kg
[1]; 5 mg/kg ip + cerulein
  AMYLASE IN THE SERUM: 54.7 U/ml
  INHIBITION OF WEIGHT INCREASE: 55.2%
  INHIBITION OF WEIGHT INCREASE (pancreas): 24.5%
  RATIO WEIGHT OF PANCREAS / ANIMAL WEIGHT: 0.54%
[1]; 7.5 mg/kg ip + cerulein
  AMYLASE IN THE SERUM: 21.7 U/ml
  INHIBITION OF WEIGHT INCREASE: 88.3%
  INHIBITION OF WEIGHT INCREASE (pancreas): 61.2%
  RATIO WEIGHT OF PANCREAS / ANIMAL WEIGHT: 0.45%
[1]; 10 mg/kg ip + cerulein
  AMYLASE IN THE SERUM: 11.8 U/ml
  INHIBITION OF WEIGHT INCREASE: 98.3%
  INHIBITION OF WEIGHT INCREASE (pancreas): 89.8%
  RATIO WEIGHT OF PANCREAS / ANIMAL WEIGHT: 0.38%
[1]; read-out: ED50 (inhibition of weight increase)
  ED50: 4.6 mg/kg
[1]; read-out: ED50, inhibition of weight increase of the pancreas
  ED50: 6.3 mg/kg
[2]; 5 mg/kg i.p. + taurocholate
  AMYLASE IN THE SERUM: 10.6 U/ml
  INHIBITION OF AMYLASE INCREASE: 28.2%
  INHIBITION OF WEIGHT INCREASE: 44.4%
  RATIO WEIGHT OF PANCREAS / ANIMAL WEIGHT: 0.50%
[2]; 10 mg/kg i.p. + taurocholate
  AMYLASE IN THE SERUM: 8.9 U/ml
  INHIBITION OF AMYLASE INCREASE: 71.8%
  INHIBITION OF WEIGHT INCREASE: 63.0%
  RATIO WEIGHT OF PANCREAS / ANIMAL WEIGHT: 0.45%
[2]; 20 mg/kg i.p. + taurocholate
  AMYLASE IN THE SERUM: 7.7 U/ml
  INHIBITION OF AMYLASE INCREASE: 102.6%
  INHIBITION OF WEIGHT INCREASE: 74.1%
  RATIO WEIGHT OF PANCREAS / ANIMAL WEIGHT: 0.42%
[2]; read-out: ED50, inhibition of amylase increase
  ED50: 8.6 mg/kg
[2]; read-out: ED50, inhibition of weight increase
  ED50: 10.1 mg/kg
In vivo
  LD50: 338 mg/kg
  selectivity ratio: 3380

## CCCCCN(CCCOCC)C(=O)C(CCC(=O)O)NC(=O)c1ccc(Cl)c(Cl)c1 (centres unmarked) [Compound 3]
guinea-pig gallbladder
  IC50: 0.6 µg/mL (≈ 1.26 µM)
Guinea pig gall bladders
  ED50: 0.75 mg/kg
Digestive tract
  ED50: 25 mg/kg
In vivo
  LD50: 298 mg/kg
  selectivity ratio: 397

## CCCCCN(CCCOC(C)C)C(=O)C(CCC(=O)O)NC(=O)c1ccc(Cl)c(Cl)c1 (centres unmarked) [Compound 4]
guinea-pig gallbladder
  IC50: 3 µg/mL (≈ 6.13 µM)
Guinea pig gall bladders
  ED50: 5.08 mg/kg

## CCCCCN(CCOC)C(=O)C(CCC(=O)O)NC(=O)c1ccc(Cl)c(Cl)c1 (centres unmarked) [Compound 5]
guinea-pig gallbladder
  IC50: 0.8 µg/mL (≈ 1.79 µM)
Guinea pig gall bladders
  ED50: 0.68 mg/kg
Digestive tract
  ED50: 20.8 mg/kg
In vivo
  LD50: 485 mg/kg
  selectivity ratio: 713

## CCCCCN(CCCO)C(=O)C(CCC(=O)O)NC(=O)c1ccc(Cl)c(Cl)c1 (centres unmarked) [Compound 6]
guinea-pig gallbladder
  IC50: 0.3 µg/mL (≈ 0.671 µM)
Guinea pig gall bladders
  ED50: 8.4 mg/kg

## CCCCCN(CCCOC)C(=O)C(CCC(=O)O)NC(=O)c1ccc(C)c(C)c1 (centres unmarked) [Compound 7]
guinea-pig gallbladder
  IC50: 0.9 µg/mL (≈ 2.14 µM)
Guinea pig gall bladders
  ED50: 0.65 mg/kg
Digestive tract
  ED50: 33.9 mg/kg
In vivo
  LD50: 440 mg/kg
  selectivity ratio: 677

## CCCCCN(CCOCC)C(=O)C(CCC(=O)O)NC(=O)c1ccc(C)c(C)c1 (centres unmarked) [Compound 8]
guinea-pig gallbladder
  IC50: 1.1 µg/mL (≈ 2.62 µM)
Guinea pig gall bladders
  ED50: 2.02 mg/kg

## CCCCCN(CCCOC)C(=O)C(CCC(=O)O)NC(=O)c1ccc(C)cc1 (centres unmarked) [Compound 9]
guinea-pig gallbladder
  IC50: 4 µg/mL (≈ 9.84 µM)
Guinea pig gall bladders
  ED50: 3.85 mg/kg

## CCCCCN(CCCOC)C(=O)C(CCC(=O)O)NC(=O)c1cccc(C)c1 (centres unmarked) [Compound 10]
guinea-pig gallbladder
  IC50: 4.1 µg/mL (≈ 10.1 µM)
Guinea pig gall bladders
  ED50: 3.66 mg/kg

## CCCCCN(CCCOC)C(=O)C(CCC(=O)O)NC(=O)c1ccc(Cl)cc1 (centres unmarked) [Compound 11]
guinea-pig gallbladder
  IC50: 2.6 µg/mL (≈ 6.09 µM)
Guinea pig gall bladders
  ED50: 3.25 mg/kg
